Reference: patent publication US6716836B2, “Non-nucleoside reverse transcriptase inhibitors” (Boehringer Ingelheim (Canada) Ltd., priority 2001, dated 2004)

Experiments:
[1] = test system: HIV replication in T-lymphocytes, virus coding for mutant enzyme K103N/Y181C; assay: ELISA (p24) assay for activity in cell culture, mutant virus; format: cell-based; conditions: Human immunodeficiency virus 1, T-lymphocyte, read-out: EC50 K103N/Y181C
Description: (§1) ELISA Assay for Assessment of Activity in Cell Culture
(§2) Compounds of the invention were tested for their ability to inhibit HIV replication in cell culture. Viruses coding for Wild type and mutant enzymes were used. T-lymphocytes were infected with the virus, infected cells were incubated in the presence of varying amounts of compounds of the invention, and an ELISA assay for the viral protein p24 was used to quantify viral replication. Table 9 lists the results as EC50 (nM).

[2] = target: T1, HIV-1 RT double mutant K103N/Y181C (Human immunodeficiency virus type 1 group M subtype B, UniProt P04585, K690N/Y768C); assay: Reverse Transcriptase (RT) assay, double mutant enzyme; format: biochemical
T1 construct: Heterodimeric RT was eluted using a descending gradient; made in house; host or cells: E. coli (inferred; the text describes only wild type and Y181C preparations)
Text: (§3) Among the enzymes for which Human Immunodeficiency Virus (HIV-1) encodes is a reverse transcriptase (1), so-named because it transcribes a DNA copy from an RNA template. This activity can be quantitatively measured in a cell-free enzyme assay, which has been previously described (2), and is based upon the observation that reverse transcriptase is able to use a synthetic template poly r(C) primed with oligo d(G) to transcribe a radio-labelled, acid-precipitable DNA strand utilising ^3H-dGTP as a substrate. The assay described below utilises the wild type (WT) enzyme, which is the predominant form of the enzyme observed with patients infected with HIV-1. Utilisation of mutant RT enzymes (for example, Y181C, prepared by site-directed mutagenesis in which the tyrosine residue at codon 181 has been replaced by a cysteine residue, or the mutants K103N, V106A and Y188C) and analogous assay conditions allows compounds to be evaluated for their effectiveness at inhibiting the mutant enzymes.
(§4) The HIV-1 RT expression clone, pKRT2, was obtained from Yale University (3). An overnight culture, grown in 2×YT medium (37° C., 225 rpm) (4), supplemented with 100 μg/mL ampicillin for positive selection was used to inoculate the 2×YT medium. The culture was incubated (37° C., 225 rpm) until it reached an OD600 of 0.6-0.9. At that time, the repressor inhibitor IPTG (isopropyl P-D-thiogalactopyranoside) was added to 0.5 mM, and the mixture was incubated for an additional 2 hours.
(§5) Purification of recombinant reverse transcriptase was performed using a combination of methods previously described (5). This procedure is summarised briefly as follows: E. Coli containing RT-1 wt or RT-1 (Y181 C) were suspended in 50 mM MES, pH 6.0 containing 10% glycerol, lysed in a French press, centrifuged, and the supernates discarded. Lysate pellets were extracted with buffer A (50 mM MES, pH 6.0, 100 mM KCl, 50 mM KPi, 10% glycerol, 0.02% hexyl-β-glucoside), and re-centrifuged; nucleic acid in supernates was precipitated with 0.1% polyethylenimine. […] Bound RT was eluted with a gradient of 0 to 1.0M
(§6) (NH4)2 SO4 in buffer B. Heparin-Sepharose fractions containing RT were concentrated (Amicon YM-30 membrane), combined with equal volumes of 2.0M (NH4)2SO4 in buffer B and injected onto a 21.5×150 mm TSK Phenyl-5PW HIC HPLC column (Phenomenex). Heterodimeric RT was eluted using a descending gradient of 1.0M to 0M (NH4)2SO4 in buffer B, concentrated, and stored at 4° C.
(§7) The 2.4× concentrated stock reaction mixture was aliquoted and stored at −20° C. The mixture is stable and can be thawed for use in each assay. This enzyme assay has been adapted to a 96 well microtiter plate system, and has been previously described (6). Tris buffer (50 mM, pH 7.8), vehicle (solvent diluted to match the compound dilution), or compounds in vehicle were dispensed into 96-well microtiter plates (10 μL/well; 3 wells/compound). The HIV-1 RT enzyme was thawed, diluted in 50 mM Tris pH 7.8 containing 0.05% Chaps to give 1.5 nM enzyme and 25 μL were dispensed per well. Ten μL of 0.5M EDTA were added to the first three wells of the microtiter plate. EDTA chelates the Mg^2+ present and prevents reverse transcription. This group served as background polymerisation, which was subtracted, from all other groups. Twenty-five μl of the 2.4× reaction mixture was added to all wells and the assay was allowed to incubate at room temperature for 30 minutes. The assay was terminated by precipitating the DNA in each well with 60 μL of sodium pyrophosphate (2% w/v) in 10% trichloroacetic acid (TCA) (10% w/v). The microtiter plate was incubated for 15 minutes at 4° C. and the precipitate was harvested onto #30 glass fibre paper (Schleicher & Schuell) using a Tomtech 96-well harvester. The filters were dried, placed in plastic bags with Betaplate scintillation cocktail (Pharmacia/LKB) and counted in the Betaplate counter (Pharmacia/LKB).
(§8) The calculation for percent inhibition is as follows: [formula] […]

[3] = test system: HIV replication in T-lymphocytes, virus coding for wild type enzyme; assay: ELISA (p24) assay for activity in cell culture, wild type virus; format: cell-based; conditions: Human immunodeficiency virus 1, T-lymphocyte, read-out: EC50 WT RT
Description: as §1, §2

HIV-1 RT wild type (WT) = target: T2, HIV-1 RT wild type (WT) (Human immunodeficiency virus type 1 group M subtype B, UniProt P04585); assay: Reverse Transcriptase (RT) assay, wild type enzyme; format: biochemical
T2 construct: Heterodimeric RT was eluted using a descending gradient; made in house; host or cells: E. coli
Text: as §3, §4, §5, §6, §7, §8

| SMILES | EC50 [1] | IC50 [2] | EC50 [3] | IC50 (HIV-1 RT wild type (WT)) |
| --- | --- | --- | --- | --- |
| CCN1c2ncc(CCOc3cccc4c3CCS(=O)(=O)N4CC(=O)NC(C)(C)C(=O)NN)cc2C(=O)N(C)c2cccnc21 [Compound 641] | < 100 nM | < 100 nM | < 100 nM | < 100 nM |
| CCN1c2ncc(CCOc3cccc4c3CCS(=O)(=O)N4CCCC(=O)NN)cc2C(=O)N(C)c2cccnc21 [Compound 636] | < 100 nM | < 100 nM | < 100 nM | < 100 nM |
| CCN1c2ncc(CCOc3cccc4c3CCS(=O)(=O)N4)cc2C(=O)N(C)c2cccnc21 [Compound 601] | < 100 nM | < 100 nM | < 100 nM | < 100 nM |
| CCN1c2ncc(CCOc3cccc4c3CS(=O)(=O)N4)cc2C(=O)N(C)c2ccc(F)nc21 [Compound 103] | < 100 nM | 100 to 1000 nM | < 100 nM | < 100 nM |
| CCN1c2ncc(CCOc3cccc4c3C=CS(=O)(=O)N4CCCC(=O)O)cc2C(=O)N(C)c2cccnc21 [Compound 809] | < 100 nM | 100 to 1000 nM | < 100 nM | < 100 nM |
| CCN1c2ncc(CCOc3cccc4c3CCS(=O)(=O)N4CCCC(=O)O)cc2C(=O)N(C)c2cccnc21 [Compound 625] | < 100 nM | < 100 nM | < 100 nM | < 100 nM |
| CCN1c2ncc(CCOc3cccc4c3CCS(=O)(=O)N4CC(=O)OC)cc2C(=O)N(C)c2cccnc21 [Compound 616] | < 100 nM | < 100 nM | < 100 nM | < 100 nM |
| CCN1c2ncc(CCOc3cccc4c3CS(=O)(=O)N4CC(=O)O)cc2C(=O)N(C)c2cccnc21 [Compound 127] | 100 to 1000 nM | 100 to 1000 nM | < 100 nM | < 100 nM |
| CCN1c2ncc(CCOc3cccc4c3CS(=O)(=O)N4Cc3cc[n+]([O-])cc3)cc2C(=O)N(C)c2cccnc21 [Compound 130] | < 100 nM | < 100 nM | < 100 nM | < 100 nM |
| CCOC(=O)CCCN1c2cccc(OCCc3cnc4c(c3)C(=O)N(C)c3cccnc3N4CC)c2CCS1(=O)=O [Compound 628] | < 100 nM | < 100 nM | < 100 nM | < 100 nM |
| CCN1c2ncc(CCOc3cccc4c3CNS4(=O)=O)cc2C(=O)Nc2c(C)cc(F)nc21 [Compound 223] | < 100 nM | < 100 nM | < 100 nM | < 100 nM |
| CCN1c2ncc(CCOc3cccc4c3CCS(=O)(=O)N4CCCS(N)(=O)=O)cc2C(=O)N(C)c2cccnc21 [Compound 630] | < 100 nM | < 100 nM | < 100 nM | < 100 nM |
| CCN1c2ncc(CCOc3cccc4c3CS(=O)(=O)N4)cc2C(=O)Nc2c(C)cc(F)nc21 [Compound 110] | < 100 nM | 100 to 1000 nM | < 100 nM | < 100 nM |
| CCN1c2ncc(CCOc3cccc4c3CS(=O)(=O)N4CC(=O)Nc3cc[n+]([O-])cc3)cc2C(=O)Nc2c(C)cc(Cl)nc21 [Compound 147] | < 100 nM | < 100 nM | < 100 nM | < 100 nM |
| CCN1c2ncc(CCOc3cccc4c3CCS(=O)(=O)N4Cc3ccncc3)cc2C(=O)N(C)c2cccnc21 [Compound 621] | < 100 nM | < 100 nM | < 100 nM | < 100 nM |
| CCN1c2ncc(CCOc3cccc4c3CCS(=O)(=O)N4CCOC(N)=O)cc2C(=O)N(C)c2cccnc21 [Compound 639] | < 100 nM | < 100 nM | < 100 nM | < 100 nM |
| CCN1c2ncc(CCOc3cccc4c3CCN(CCCC(=O)O)S4(=O)=O)cc2C(=O)N(C)c2cccnc21 [Compound 713] | < 100 nM | < 100 nM | < 100 nM | < 100 nM |
| CCN1c2ncc(CCOc3cccc4c3CCS(=O)(=O)N4)cc2C(=O)Nc2c(C)cc(F)nc21 [Compound 602] | < 100 nM | < 100 nM | < 100 nM | < 100 nM |
